Experimental findings from BindingDB's records for doi:10.1016/S0960-894X(97)00417-4 (1997) are described below.

pKi: −log10 of the molar value.

This test can be described thus: Inhibition of [3H]pentazocine binding to Sigma opioid receptor type 1.
`CC1(C)C2CC[C@]1(C)CN(CCC1CCCCCCC1)C2` [(S)-3-(2-Cyclooctyl-ethyl)-1,8,8-trimethyl-3-aza-bicyclo[3.2.1]octane] showed a pKi of 8.54.

`CC1(C)C2CC[C@]1(C)CN(CCC1CCCC1)C2` [(S)-3-(2-Cyclopentyl-ethyl)-1,8,8-trimethyl-3-aza-bicyclo[3.2.1]octane] had a pKi of 8.77.

Take `CC1(C)C2CC[C@]1(C)CN(CC1CCCCC1)C2` [(S)-3-Cyclohexylmethyl-1,8,8-trimethyl-3-aza-bicyclo[3.2.1]octane]: the pKi was 8.89.

With `CC1(C)C2CC[C@]1(C)CN(CCC1CCCCCC1)C2` [(S)-3-(2-Cycloheptyl-ethyl)-1,8,8-trimethyl-3-aza-bicyclo[3.2.1]octane], the pKi was 8.54.

Take `CC1(C)C2CC[C@]1(C)CN(CCC1CCCCC1)C2` [(S)-3-(2-Cyclohexyl-ethyl)-1,8,8-trimethyl-3-aza-bicyclo[3.2.1]octane]: the pKi was 8.66. This pKi and that of the molecule before are within 0.2 log units of each other.

With `C=CCN1CC[C@@]2(C)c3cc(O)ccc3C[C@H]1[C@H]2C` [(1S,9S,13S)-10-allyl-1,13-dimethyl-10-azatricyclo[7.3.1.0~2,7~]trideca-2,4,6-trien-4-ol], the pKi was 6.80.

`CC1(C)C2CC[C@@]1(C)CN(CCC1CCCCC1)C2` [(R)-3-(2-Cyclohexyl-ethyl)-1,8,8-trimethyl-3-aza-bicyclo[3.2.1]octane] had a pKi of 8.85.

The molecule `CC1(C)C2CC[C@]1(C)CN(CCCCC1CCCCC1)C2` [(S)-3-(4-Cyclohexyl-butyl)-1,8,8-trimethyl-3-aza-bicyclo[3.2.1]octane] showed a negative-log Ki (pKi) of 8.92.

Molecule `CC1(C)C2CC[C@]1(C)CN(C1CCCCC1)C2` [(S)-3-Cyclohexyl-1,8,8-trimethyl-3-aza-bicyclo[3.2.1]octane] showed a pKi of 8.52.

The molecule `CC1(C)C2CC[C@]1(C)CN(CCCC1CCCCC1)C2` [(S)-3-(3-Cyclohexyl-propyl)-1,8,8-trimethyl-3-aza-bicyclo[3.2.1]octane] gave a negative-log Ki (pKi) of 8.60.

In turn, `CC1(C)C2CC[C@@]1(C)CN(CC1CCCCC1)C2` [(R)-3-Cyclohexylmethyl-1,8,8-trimethyl-3-aza-bicyclo[3.2.1]octane] had a pKi of 8.96. Compared with the last molecule, the pKi is 0.36 log units higher.

Regarding `CC1(C)C2CC[C@]1(C)CN(CCC1C3CC4CC(C3)CC1C4)C2` (stereo partly drawn) [(S)-3-(2-Adamantan-2-yl-ethyl)-1,8,8-trimethyl-3-aza-bicyclo[3.2.1]octane], the pKi was 8.37.
